Experimental data published in patent US11186610B2, “Crystal of glutathione trisulfide dihydrate and method for producing same” (KYOWA HAKKO BIO CO., LTD., priority 2016, dated 2021).

Test: Hygroscopicity / storage stability: weight change on storage at 40° C. and 75% relative humidity
Type: physicochemical
Conditions: for Weight change with the elapse of time (in words): storage 0-4 hours at 40° C.
Experimental: 1 g of the crystal of glutathione trisulfide dihydrate produced in Example 2 was dissolved in water, and the volume was made up to 100 mL. The aqueous solution was filtered with a 0.45 μm of filter and then lyophilized to obtain a whitish transparent powder.
Subsequently, hygroscopicity of the obtained non-crystalline amorphous form of glutathione trisulfide and the crystal of glutathione trisulfide dihydrate produced in Example 2 was compared.
About 100 mg of each sample was weighed with a precise balance and then filled in a glass container, and after storage in THE051A (manufactured by Advantec Toyo Kaisha, Ltd.) under conditions of 40° C. and 75% relative humidity, the sample was weighed again to calculate a weight change rate. The sample weight after each elapsed time was measured with respect to 100% weight at the start of test.

[1] = as compared with the non-crystalline amorphous form, 40° C.

Sample weight with respect to 100% weight at the start of test (elapsed time 0 hour, 40° C.) [%] | Sample weight with respect to 100% weight at the start of test (elapsed time 0.5 hour, 40° C.) [%] | Sample weight with respect to 100% weight at the start of test (elapsed time 1 hour, 40° C.) [%] | Sample weight with respect to 100% weight at the start of test (elapsed time 2 hours, 40° C.) [%] | Sample weight with respect to 100% weight at the start of test (elapsed time 4 hours, 40° C.) [%] | Weight change with the elapse of time (in words) | Hygroscopicity (in words) [1] | Storage stability (in words) [1] | Structure (SMILES)
100.0 | 106.7 | 107.7 | 108.7 | 108.7 | increases with the elapse of time |  |  | N[C@@H](CCC(=O)N[C@@H](CSSSC[C@H](NC(=O)CC[C@H](N)C(=O)O)C(=O)NCC(=O)O)C(=O)NCC(=O)O)C(=O)O [non-crystalline amorphous form, glutathione trisulfide]
100.0 | 100.0 | 100.0 | 100.0 | 100.0 | almost not changed | low hygroscopicity | excellent storage stability | N[C@@H](CCC(=O)N[C@@H](CSSSC[C@H](NC(=O)CC[C@H](N)C(=O)O)C(=O)NCC(=O)O)C(=O)NCC(=O)O)C(=O)O.O.O [crystal of dehydrate, glutathione trisulfide dihydrate]
